Measured values from PMC6620293, “Anti-cancer activity of the novel 2-hydroxydiarylamide derivatives IMD-0354 and KRT1853 through suppression of cancer cell invasion, proliferation, and survival mediated by TMPRSS4” (Scientific Reports, 2019).

Biological target: dipeptidyl peptidase 4 (DPP4) (Homo sapiens, UniProt P27487)
Assay: protease activity profiling assay (BPS Bioscience service), […]~[…] compound in […] DMSO
Format: biochemical

Chain of dipeptidyl peptidase 4 (DPP4) (P27487 39-766): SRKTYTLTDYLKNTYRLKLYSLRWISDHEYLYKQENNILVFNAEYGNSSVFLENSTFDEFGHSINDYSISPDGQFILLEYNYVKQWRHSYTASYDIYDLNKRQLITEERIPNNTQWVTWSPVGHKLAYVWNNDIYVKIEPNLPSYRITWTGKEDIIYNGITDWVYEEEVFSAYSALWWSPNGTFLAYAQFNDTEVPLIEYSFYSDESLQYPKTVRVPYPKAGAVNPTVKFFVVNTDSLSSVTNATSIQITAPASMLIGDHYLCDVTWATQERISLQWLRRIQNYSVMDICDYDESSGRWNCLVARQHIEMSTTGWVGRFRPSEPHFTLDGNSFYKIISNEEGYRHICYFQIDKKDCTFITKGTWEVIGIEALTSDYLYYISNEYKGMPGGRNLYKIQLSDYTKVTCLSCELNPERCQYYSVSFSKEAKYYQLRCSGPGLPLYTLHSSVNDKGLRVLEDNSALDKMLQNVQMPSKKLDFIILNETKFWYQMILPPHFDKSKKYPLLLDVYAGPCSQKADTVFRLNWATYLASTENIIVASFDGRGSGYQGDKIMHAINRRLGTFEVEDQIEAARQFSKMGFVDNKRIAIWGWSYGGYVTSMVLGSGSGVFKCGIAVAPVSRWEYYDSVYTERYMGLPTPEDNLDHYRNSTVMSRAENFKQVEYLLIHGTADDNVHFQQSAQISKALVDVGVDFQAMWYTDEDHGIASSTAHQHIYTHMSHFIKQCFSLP

Compound: O=C(Nc1cc(C(F)(F)F)cc(C(F)(F)F)c1)c1cc(Cl)ccc1O [IMD-0354, N-(3,5-Bis-trifluoromethylphenyl)-5-chloro-2-hydroxybenzamide]
- IC50: 9.2 µM
